Reference: article PMC4280171, “Novel PDE4 Inhibitors Derived from Chinese Medicine Forsythia” (PLoS ONE, 2014)
Read-outs that look alike come from different tables or passages of the source.

Experiments:
PDE4 [1] = assay: PDE-Glo phosphodiesterase activity assay, PDE4; format: biochemical, human; details: for IC50: 10 mU purified PDE4 per reaction, PDE-Glo assay
Procedure: Compounds 1–14 (Fig. 2) were tested in vitro using PDE-glo phosphodiesterase assay (Promega, Madison, WI). Briefly, all the compounds were diluted in DMSO, and the final concentrations in each assay were 100, 10, 1, 0.1, 0.01, 0.001, 0.0001 µM. For the PDE4 activity assay, 10 mU of purified PDE4D (Millipore) was used per reaction. […] PDE4 = 8 µM.
(§1) For the PDE activity assay, all test compounds were diluted in DMSO with final concentrations in each assay of 100, 10, 1, 0.1, 0.01, 0.001, 0.0001 µM. For the PDE4 activity assay, 10 mU of purified PDE4 (Millipore) was used per reaction. Compounds 6, 7, 9 and 13 (blue underline) were further tested in PDE3, 5, 7, 10 activity assays in which 25 mU of purified enzyme was used per reaction. Summary of compound IC50 in lower right corner. TEXT PRINTED IN THE PICTURE: Compound 6: PDE3: >100uM; PDE4: 90nM; PDE5: 80uM; PDE7: >100uM; PDE10: >100uM | Compound 7: PDE3: >100uM; PDE4: 8uM; PDE5: >100uM; PDE7: >100uM; PDE10: >100uM | Compound 9: PDE3: >100uM; PDE4: 60nM; PDE5: >100uM; PDE7: >100uM; PDE10: >100uM | Compound 13: PDE3: >100uM; PDE4: 10nM; PDE5: 90uM; PDE7: >100uM; PDE10: >100uM
(§2) A PDE activity assay was carried out using the PDE-Glo Phosphodiesterase Assay per manufacturer’s instruction (Promega). Briefly, 5 ul of 1X PDE-Glo Reaction buffer containing 10 mU of purified human recombinant PDE4A4 (Millipore) was added to 96 well plate. All test compounds were dissolved in DMSO and a serial dilution (110) of the inhibitors were performed using 1X PDE-Glo Reaction buffer. 7.5 ul of test compounds were added to the PDE enzyme with the final concentrations in each assay of 100, 10, 1, 0.1, 0.01, 0.001, 0.0001 µM, and incubated at room temperature for 10 min. To initiate the PDE reaction, 12.5 ul of 2 µM cAMP was added to each reaction, mixed well and incubate at room temperature for 10 min. The reactions were terminated using 12.5 ul of PDE-Glo Termination Buffer. 12.5 ul of PDE-Glo Detection Solution containing PDE-Glo Detection Buffer and Protein Kinase A was added to each reaction. The reactions were carried at room temperature for 20 min. 50 ul of Kinase-Glo Reagent was then added to each reaction, mixed well, and incubate for 10 minutes at room temperature. The chemical luminescence signals were measured, quantified and graphed. Compounds 6, 7, 9 and 13 were further tested similarly using 25 mU purified PDE3, 5, 7, 10 (Millipore) enzyme.

PDE10 = biological target: T1, PDE10 (Homo sapiens, UniProt Q9Y233); assay: PDE-Glo phosphodiesterase activity assay, PDE10; format: biochemical; details: 25 mU purified enzyme per reaction
T1 construct: purchased Millipore
T1 sequence (Q9Y233 whole entry): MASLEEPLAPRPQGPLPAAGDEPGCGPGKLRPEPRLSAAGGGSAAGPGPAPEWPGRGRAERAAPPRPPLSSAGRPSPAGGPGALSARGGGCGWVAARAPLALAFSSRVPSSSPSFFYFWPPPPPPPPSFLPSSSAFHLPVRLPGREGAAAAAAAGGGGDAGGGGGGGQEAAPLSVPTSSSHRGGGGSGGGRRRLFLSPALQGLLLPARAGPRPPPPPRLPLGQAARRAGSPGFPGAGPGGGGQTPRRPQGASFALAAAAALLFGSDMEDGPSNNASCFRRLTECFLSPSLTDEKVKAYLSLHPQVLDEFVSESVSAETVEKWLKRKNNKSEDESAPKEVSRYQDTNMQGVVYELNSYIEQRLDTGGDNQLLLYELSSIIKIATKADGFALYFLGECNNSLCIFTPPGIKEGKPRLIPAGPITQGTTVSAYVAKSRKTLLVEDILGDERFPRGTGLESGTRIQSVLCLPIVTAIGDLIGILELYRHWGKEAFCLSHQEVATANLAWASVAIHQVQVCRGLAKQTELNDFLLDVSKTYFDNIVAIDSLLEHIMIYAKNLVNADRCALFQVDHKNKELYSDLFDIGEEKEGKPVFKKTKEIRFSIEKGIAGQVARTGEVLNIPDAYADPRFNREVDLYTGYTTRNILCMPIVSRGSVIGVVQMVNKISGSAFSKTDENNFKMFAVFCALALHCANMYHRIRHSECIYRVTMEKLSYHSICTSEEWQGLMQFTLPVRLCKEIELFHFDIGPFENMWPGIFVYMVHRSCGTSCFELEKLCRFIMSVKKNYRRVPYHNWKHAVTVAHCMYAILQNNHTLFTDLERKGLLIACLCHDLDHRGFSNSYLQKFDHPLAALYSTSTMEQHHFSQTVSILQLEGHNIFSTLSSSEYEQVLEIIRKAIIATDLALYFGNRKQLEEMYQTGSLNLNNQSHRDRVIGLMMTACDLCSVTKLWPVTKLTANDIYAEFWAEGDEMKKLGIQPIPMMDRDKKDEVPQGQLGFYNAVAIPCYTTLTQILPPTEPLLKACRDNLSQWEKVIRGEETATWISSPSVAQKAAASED
Procedure: as §1, §2

[2] = tested on: LPS stimulated RAW264.7 and PBMC cells; assay: TNF secretion in LPS stimulated cells, RAW264.7 and PBMC; format: cell-based, mouse; human; details: Mus musculus
Procedure: Compound 6, 7, 9 and 13 were also tested in LPS stimulated RAW264.7 (Fig. 4A) and PBMC (Fig. 4B) cells to evaluate their ability to suppress TNF secretion. […] PDE4. […] TNF ranging from 25–75 nM (Fig. 4C).
(§3) Figure 4 Tested compounds reduce TNF secretion in LPS stimulated mouse RAW264.7 and human PBMCs. A. 5×10^5 RAW264.7 cells were seeded in 96 wells for 18 h. Cells were primed with compounds at different concentration for 3 h before treated with LPS (1 ng/ml) for additional 8 h. TNF cytokine releases were monitored by ELISA. B. PBMC (0.2 ml at 1×10^5/ml) were primed with compounds at different concentration for 3 h before treated with LPS (1 ng/ml) for additional 8 h. TNF cytokine releases were monitored by ELISA. % of TNF secretion were calculated and graphed. C. Summary of compound IC50. The data represent n = 3–6 experiments. TEXT PRINTED IN THE PICTURE: (C) C6: RAW 264.7: 400nM; PBMC: 90nM | (C) C7: RAW 264.7: 8uM; PBMC: 10uM | (C) C9: RAW 264.7: 100nM; PBMC: 80nM | (C) C13: RAW 264.7: 70nM; PBMC: 25nM
(§4) 5×10^5 RAW264.7 cells were seeded in 96 wells for 18 h. Cells were primed with compounds at different concentration for 3 h before treated with LPS (1 ng/ml) for additional 8 h. TNF cytokine releases were monitored by ELISA. PBMC (0.2 ml at 1×10^5/ml) were primed with compounds at different concentration for 3 h before treated with LPS (1 ng/ml) for additional 8 h. TNF cytokine releases were monitored by ELISA. % of TNF secretion were calculated and graphed.

[3] = tested on: C57/BL6 mice given LPS (E. coli, 100 µg i.p.); assay: LPS septic shock model; format: in vivo, mouse; details: for ID50 IL-6 / inhibitory dose [ID50] TNF: i.p. 10 min before LPS 100 ug i.p., blood 2 h later
Procedure: Mice were euthanized 2 h later using pentobarbital where blood was collected and assayed for IL6 and TNF cytokine levels. […] In a separate experiment, a brief pharmacokinetic study was performed where PDE4 inhibitors (1 mg/kg, i.p.) were given to mice 18 h before LPS administration (E. coli, 100 ug i.p.).
Figure 6 PDE4 inhibitors lessen cytokine storm induced by LPS septic shock. C57/BL6 mice were administered i.p. nothing (CON), vehicle, 10 ug/kg, 100 ug/kg, 1 mg/kg or 10 mg/kg of compounds 6, 7 or 9. Mice were given LPS (E. coli, 100 µg) 10 min later through an i.p. injection. 2 h later mice were euthanized using pentobarbital and blood was collected for IL-6 and TNF measurements. Shown in panel A–B is the % inhibition of cytokine levels as a function of drug dose. The data represent n = 3 mice/group at each dose. C57/BL6 mice were also pretreated with compound 5, 6, 7 or 9 at 1 mg/kg. Mice were given LPS (E. coli, 100 µg) 18 h later through an i.p. injection. 2 h later the mice were euthanized using pentobarbital and blood was collected for IL-6 and TNF measurements (C–D).
Compounds were diluted in PBS and various amounts (0.01, 0.1, 1 and 10 mg/kg) of compounds were administered to mice though an i.p. injection. 10 min later, mice were given 100 µg of LPS (E. coli) through an i.p. injection. 2 h later, mice were euthanized. Plasma was collected and processed for cytokine assays.

PDE5 = biological target: T2, PDE5 (Homo sapiens, UniProt O76074); assay: PDE-Glo phosphodiesterase activity assay, PDE5; format: biochemical; details: 25 mU purified enzyme per reaction
T2 construct: purchased Millipore
Procedure: as §1, §2

LPS stimulated PBMC = assay: TNF secretion in LPS stimulated PBMC (ELISA); format: cell-based; details: Homo sapiens, primed with compound 3 h, LPS 1 ng/ml 8 h
Procedure: as §3, §4

[4] = tested on: murine models of inflammation; details: parenteral and oral application; for severity of tissue injury: in each of the models
PDE7 = assay: PDE-Glo phosphodiesterase activity assay, PDE7; format: biochemical; details: 25 mU purified enzyme per reaction
Procedure: as §1, §2

[5] = tested on: C57/BL6 mice challenged with H1N1 (A/PR/8/34); assay: H1N1 pneumonia model; format: in vivo, mouse; details: 30 µg/ml in drinking water, estimated dose 5 mg/kg/d; for survival of mice infected with H1N1: versus diluent
PDE3 = assay: PDE-Glo phosphodiesterase activity assay, PDE3; format: biochemical; details: 25 mU purified enzyme per reaction
Procedure: as §1, §2

[6] = tested on: LPS stimulated RAW264.7 cells; assay: TNF secretion in LPS stimulated RAW264.7 cells (ELISA); format: cell-based; details: Mus musculus, primed with compound 3 h, LPS 1 ng/ml 8 h, read-out: IC50 TNF secretion, RAW 264.7
Procedure: as §3, §4

PDE4 [7] = tested on: PDE4; parameters: method as in PMID 15476679; details: selective inhibitors of PDE4 isolated from traditional Chinese medicines; cited from earlier work
[8] = RAW264.7, range over both cell types (and over the compounds named)

Row | SMILES | IC50 (PDE4 [1]) | IC50 (PDE10) | IC50 [2, 8] | ID50 IL-6 [3] | inhibitory dose [ID50] TNF [3] | IC50 (PDE5) | IC50 (LPS stimulated PBMC) | severity of tissue injury [4] | overt signs of distress in treated animals [4] | IC50 (PDE7) | lavage cell counts, protein concentrations, and lavage cytokine IL-6 and TNF [5] | serum cytokines from H1N1-induced systematic inflammation [5] | signs of tissue injury (H&E, lung) [5] | survival of mice infected with H1N1 [5] | IC50 (PDE3) | IC50 [6] | times weaker in activity toward PDE4 compared with compound 6 (PDE4 [1]; in vitro) | IC50 ([2]; RAW264.7, range over both cell types) | serum TNF and IL-6 after 18 h lead time ([3]; 1 mg/kg i.p. 18 h before LPS 100 ug i.p.) | IC50 (PDE4 [7])
1 | COc1ccc(C2OCC3(O)C(c4ccc(OC)c(OC)c4)OCC23)cc1OC (stereo not drawn) [Compound 6] | 0.09 µM | > 100 µM | 0.025 to 0.4 µM | 0.1∼1 mg/kg | 0.01∼1 mg/kg | 80 µM | 0.09 µM | lessen severity of tissue injury | none of the animals treated with the agents exhibited overt signs of distress | > 100 µM | decreased | significantly reduced | able to lessen signs of tissue injury | significantly improved the survival | > 100 µM | 0.4 µM | – | – | – | –
2 | COc1ccc([C@@H]2OC[C@H]3[C@@H]2CO[C@@H]3c2ccc(O[C@@H]3O[C@H](CO)[C@@H](O)[C@H](O)[C@H]3O)c(OC)c2)cc1OC [Compound 7, Forsythin] | 8 µM | > 100 µM | – | 0.1∼1 mg/kg | 0.01∼1 mg/kg | > 100 µM | 10 µM | lessen severity of tissue injury | none of the animals treated with the agents exhibited overt signs of distress | > 100 µM | decreased | significantly reduced | able to lessen signs of tissue injury | significantly improved the survival | > 100 µM | 8 µM | > 80 times | 8 to 10 µM | – | –
3 | COc1cccc(CN2N=NC3C(=O)N(c4ccc(OC)c(OC)c4)C(=O)C32)c1 (stereo not drawn) [Compound 9] | 0.06 µM | > 100 µM | 0.025 to 0.4 µM | 0.1∼1 mg/kg | 0.01∼1 mg/kg | > 100 µM | 0.08 µM | lessen severity of tissue injury | none of the animals treated with the agents exhibited overt signs of distress | > 100 µM | decreased | significantly reduced | able to lessen signs of tissue injury | significantly improved the survival | > 100 µM | 0.1 µM | – | – | excellent efficacy reducing both serum TNF and IL-6 cytokines | –
4 | COc1ccc(N2C(=O)C3N=NN(CC(=O)Nc4cc(C)cc(C)c4)C3C2=O)cc1OC (stereo not drawn) [Compound 13] | 0.01 µM | > 100 µM | 0.025 to 0.4 µM | – | – | 90 µM | 0.025 µM | lessen severity of tissue injury | none of the animals treated with the agents exhibited overt signs of distress | > 100 µM | decreased | significantly reduced | able to lessen signs of tissue injury | significantly improved the survival | > 100 µM | 0.07 µM | – | – | – | –
5 | COc1ccc([C@@H]2CC(=O)c3c(O)cc(O)cc3O2)cc1O [Hesperetin] | – | – | – | – | – | – | – | – | – | – | – | – | – | – | – | – | – | – | – | 10 to 100 µM
6 | COc1cc(O)c2c(=O)c(-c3ccc(O)cc3)coc2c1 [prunetin] | – | – | – | – | – | – | – | – | – | – | – | – | – | – | – | – | – | – | – | 10 to 100 µM
